{"source": "paper PMC9241302", "about": "“Identification of 2-(4-N,N-Dimethylaminophenyl)-5-methyl-1-phenethyl-1H-benzimidazole targeting HIV-1 CA capsid protein and inhibiting HIV-1 replication in cellulo” (BMC Pharmacology & Toxicology, 2022)", "key": {"[1]": {"conditions": "cited from earlier work"}, "[2]": {"parameters": "method as in PMID 25512408, PMID 30393786, PMID 24749923, PMID 26492824", "conditions": "cited from earlier work"}, "HIV-1 CA [3]": {"biological_target": "T1, HIV-1 CA (Human immunodeficiency virus type 1 group M subtype B, UniProt P12493)", "assay": "Binding to HIV-1 CA by isothermal microcalorimetry (ITC)", "parameters": "the capsid protein (CA) of the Gag polyprotein", "conditions": "200 µM", "procedure": "The affinity of compound 696 for HIV-1 CA in vitro was measured by microscale thermophoresis (MST) as described previously for FIV CA [31]. Due to its intrinsic autofluorescence interfering with MST, the binding of compound 314 to CA was measured using isothermal microcalorimetry (ITC) with a Microcal iTC200 calorimeter (Malvern Instruments, Worcestershire, UK). The calorimeter cell contained 200 µL of recombinant HIV-1 CA (kind gifted by Drs Verrier and Coiffier) at 0.78 mg/mL in phosphate buffer (NaH2PO4/Na2HPO4) 50 mM pH 7.5, NaCl 100 mM, 1% DMSO [v/v]. Compound 314 at 200 µM was then injected sequentially into the calorimeter cell (injection #1: 1 µL, injections #2-#20: 2 µL) at 120 s intervals. Data were analyzed using the OriginLab8.5® software according to the manufacturer’s instructions."}, "HIV-1 NL4-3 Ba-L": {"system": "HIV-1 NL4-3 Ba-L", "assay": "microbe, parasite or virus in culture", "type": "cell-based", "conditions": "for inhibition of HIV-1 replication (in words): U87-CD4-CCR5 cells, serial 1:2 dilutions from 10 µM", "procedure": "Compounds were first dissolved in DMSO to reach a concentration of 20 mM. They were further diluted to a 200 µM working stock and then further diluted to reach a starting concentration of 10 µM in the culture plate. U87-CD4-CCR5 cells were seeded in quadruplicate at 4000 cells/well in a final volume of 100 µL. The next day, 24 µL of the compound was added in serial 1:2 dilutions to the cells. Two hours later, 25 µL of infectious virus (NL4-3 Ba-L) were added to the cells with a TCID50 of 250. AZT at 10 µM was included as an inhibition control. The medium was replenished in the presence of compounds once every 3 to 4 days. The supernatant was collected every 3–4 days and analyzed for virus production by an in-house p24 capture ELISA. IC50 was calculated using “Quest Graph™ IC50 Calculator” (AAT Bioquest, Inc., https://www.aatbio.com/tools/ic50-calculator). Cytotoxicity of the compound was tested on U87-CD4-CCR5 cells in parallel by MTT assay (at the same protocol as in Sect. 3.5 but after 11 days of incubation))[39]."}, "[4]": {"assay": "Solubility observed in the assays", "type": "physicochemical", "conditions": "for solubility at high concentrations (in words): HIV-1 replication assay"}, "[5]": {"assay": "Cytotoxicity in murine macrophages (MTT)", "type": "cell-based", "conditions": "mouse, J774.1 murine macrophages; Fig. 2 toxicology summary", "procedure": "(§1) TZM-bl cells, U87-CD4-CCR5, murine macrophages (J774.1), and THP-1 monocytes (ATCC®TIB-202™) were grown following ATCC recommendations. Cells were seeded in a 96-well plate (10^4 cells in 200 µL culture medium) and incubated at 37 °C in a 5% CO2 atmosphere for 48 h, to allow cell adhesion before drug testing. For stimulation (THP-1 monocytes), cells were incubated with 100 nM of phorbol 12-myristate 13-acetate (PMA) for 48 h. […] A vehicle for control (0.4% DMSO) and negative wells (cells in medium) was used in each test. […] After removing the medium, formazan crystals were dissolved in 180 µL of DMSO and 20µL of MTT buffer (0.1 M glycine, 0.1 M NaCl, 0.5 mM EDTA, pH 10.5), and the absorbance at 560 nm was measured. […] Tests were performed in triplicate, in two independent experiments."}, "mice": {"system": "mice", "conditions": "cited from earlier work"}, "human MT4": {"system": "human MT4", "conditions": "cited from earlier work"}, "HIV-1 CA [6]": {"biological_target": "T1, HIV-1 CA", "parameters": "the capsid protein (CA) of the Gag polyprotein; made in house; host or cells: Escherichia coli BL21(DE3) pLysS; method as in PMID 30393786", "conditions": "PF74 data from the literature, same condition, cited from earlier work"}, "HIV-1 CA [7]": {"biological_target": "HIV-1 CA", "conditions": "Table 1, PF74, literature value; read-out: Binding affinity; cited from earlier work"}, "HIV-1": {"system": "HIV-1", "conditions": "Table 1, PF74, literature value; read-out: IC50 in U87; cited from earlier work"}, "human TZM-bl": {"system": "human TZM-bl", "conditions": "cited from earlier work"}, "U87 cells": {"system": "U87 cells", "conditions": "cited from earlier work"}, "[8]": {"system": "human embryonic kidney cells", "parameters": "method as in PMID 25512408, PMID 30393786, PMID 24749923, PMID 26492824", "conditions": "read-out: EC50 in human embryonic kidney cells (cytotoxicity); cited from earlier work"}, "[9]": {"conditions": "human, microsomes; cited from earlier work"}, "HIV-1 CA [10]": {"biological_target": "T1, HIV-1 CA", "assay": "HIV-1 CA assembly inhibition assay (absorbance at 340 nm)", "type": "biochemical", "parameters": "the capsid protein (CA) of the Gag polyprotein; made in house; host or cells: Escherichia coli BL21(DE3) pLysS", "conditions": "compounds at 25 or 50 µM, CA 5 mg/mL, 30 min", "procedure": "The CA assembly assay was performed in a final volume of 70 µL in 384-well plates, with a final concentration of 5 mg/mL of purified recombinant HIV-1 CA in Phosphate/NaCl Buffer (NaH2PO4/Na2HPO4 50 mM, NaCl 100 mM, pH 7.4), as described for FIV CA [27, 31]. Absorbance was measured at 340 nm every 30 s in a multiplate reader VarioskanTM Flash Multimode Reader (Thermo Scientific, MA, US) at 37 °C for 30 min. The compounds were tested at a fixed initial dose of 25 or 50 µM (at 0.5% DMSO [v/v]) by adding 1 µL of the concentrated ligand to the well before starting the measurement. The controls were CA at 5 mg/mL in only 0.5% DMSO [v/v] and CA without DMSO. The criteria to select active compounds were the observation of at least 50% of assembly inhibition at these doses, based on the reduction of the OD value at 340 nm at the plateau value compared to the controls."}, "[11]": {"system": "HIV-1 reverse transcription (pol viral DNA)", "assay": "qPCR quantification of reverse transcribed viral DNA in U87-CD4-CCR5 cells", "type": "cell-based", "conditions": "10 µM, cells preincubated, DNA extracted 48 h post-infection", "experimental": "U87-CD4-CCR5 cells were plated in a 24-wells plate at 1.25 × 10^5 cells per well. […] Total DNA was extracted 48 h post-infection using the AllPrep DNA/RNA Mini Kit (Qiagen, Venlo, Netherlands). […] The following program was used in the LightCycler 480 Real-Time PCR System (Roche, Basel, Switzerland): pre-incubation: 95 °C for 3 min, pre-amplification: 2 cycles of 95 °C for 15 s and 49 °C for 15 s, amplification: 40 cycles of 95 °C for 10 s, 58 °C for 20 s, 72 °C for 30 s, melting curve stage: 95 °C for 5 s, 55 °C for 1 min and then 97 °C with acquisition every 10 °C, cooling stage: 40 °C for 10 s. Serial dilution of the 8E5 cell line which contains 1 copy of HIV-1 proviral DNA per cell was used as a standard curve for viral RT products [46]. […] Results were calculated as the number of copies of Pol per copy of β-actin. Statistical analysis was performed using an unpaired, two-tailed, Mann–Whitney test with GraphPad Prism 7.0 software. Tests were performed in quadruplicate, in two independent experiments."}, "[12]": {"system": "murine macrophages (J774.1)", "assay": "Cytotoxicity in murine macrophages (MTT)", "type": "cell-based", "conditions": "50 µM, 24 h", "procedure": "as §1"}}, "note": "Entries after “also recorded” stand apart in the source; their conditions may differ. Where two headings read alike, the source gives them in different places.", "data": [{"smiles": "C=CCn1c(C(=O)N2CCN(C/C=C/c3ccccc3)CC2)cs/c1=N/N=C\\C=C\\c1ccco1", "note": "[compound 314]", "values": [{"measurement": "AMES Test (mutagenicity)", "setting": "[1]", "value": "non mutagenic; also recorded: no mutagenicity"}, {"measurement": "genotoxicity by Micronucleus Test", "setting": "[2]", "value": "Not genotoxic; also recorded: no genotoxicity"}, {"measurement": "specific binding for HIV-1 CA", "setting": "HIV-1 CA [3]", "value": "no specific binding"}, {"measurement": "inhibition of HIV-1 replication (in words)", "setting": "HIV-1 NL4-3 Ba-L", "value": "clear dose–response inhibition; also recorded: inhibition only at 10 µM"}, {"measurement": "solubility", "setting": "[4]; pH 7.4, CA assembly assay, read-out: insolubility at concentrations", "value": "> 10", "unit": "µM"}, {"measurement": "EC50", "setting": "[5]", "value": 40, "unit": "µM"}, {"measurement": "Oral Rat LD50", "setting": "mice; Table S1, 314, not marked as TEST-calculated, Fig. 2 gives mice", "value": ">2000", "unit": "mg/kg"}, {"measurement": "LD50 in mice (oral acute toxicity)", "setting": "mice", "value": 2000, "unit": "mg/kg"}]}, {"smiles": "Cc1[nH]c2ccccc2c1CC(=O)NC(Cc1ccccc1)C(=O)N(C)c1ccccc1", "note": "(centres unmarked) [PF74]", "values": [{"measurement": "EC50", "setting": "human MT4", "value": 70, "unit": "µM"}, {"measurement": "Effect in p24 multimerization in vitro", "setting": "HIV-1 CA [6]", "value": "accelerated"}, {"measurement": "Effect in p24 multimerization in vitro", "setting": "HIV-1 CA [6]; listed as C00001", "value": "acceleration"}, {"measurement": "Kd", "setting": "HIV-1 CA [7]", "value": "0.06 to 0.09", "unit": "µM"}, {"measurement": "IC50", "setting": "HIV-1", "value": 0.06, "unit": "µM"}, {"measurement": "EC50", "setting": "human TZM-bl", "value": 47, "unit": "µM"}, {"measurement": "EC50", "setting": "human TZM-bl; read-out: EC50 in TZM-bl cells (μM) 48hs, Table 1, PF74, 48hs, literature value", "value": 23.5, "unit": "µM"}, {"measurement": "EC50", "setting": "U87 cells", "value": 75, "unit": "µM"}, {"measurement": "EC50", "setting": "[8]", "value": "> 50", "unit": "µM"}, {"measurement": "Metabolic stability, half-life (t1/2)", "setting": "[9]", "value": "Human liver microsomes, the half-life (t1/2) less than 1 min"}]}, {"smiles": "C=CCn1c(C(=O)O)cs/c1=N\\N=C\\c1ccc(/C=N/N=c2\\scc(C(=O)O)n2CC=C)cc1", "note": "[compound 1310]", "values": [{"measurement": "inhibition of HIV-1 replication (in words)", "setting": "HIV-1 NL4-3 Ba-L", "value": "trend towards inhibition"}, {"measurement": "interference with the assembly of HIV-1 CA in vitro", "setting": "HIV-1 CA [10]", "value": "interference with the assembly"}, {"measurement": "solubility at high concentrations (in words)", "setting": "[4]", "value": "solubility problems"}, {"measurement": "EC50", "setting": "[5]", "value": "> 50", "unit": "µM"}]}, {"smiles": "CC(/C=N/N1CCSCC1)=C\\c1ccco1", "note": "[compound 878]", "values": [{"measurement": "inhibition of HIV-1 replication (in words)", "setting": "HIV-1 NL4-3 Ba-L", "value": "trend towards inhibition"}, {"measurement": "interference with the assembly of HIV-1 CA in vitro", "setting": "HIV-1 CA [10]", "value": "interference with the assembly"}, {"measurement": "solubility at high concentrations (in words)", "setting": "[4]", "value": "solubility problems"}, {"measurement": "EC50", "setting": "[5]", "value": 50, "unit": "µM"}]}, {"smiles": "Cc1cn([C@H]2C[C@H](N=[N+]=[N-])[C@@H](CO)O2)c(=O)[nH]c1=O", "note": "[AZT, Zidovudine, reference compound]", "values": [{"measurement": "p24 production", "setting": "HIV-1 NL4-3 Ba-L; AZT 10 µM inhibition control", "value": "No p24 production was detected"}, {"measurement": "inhibition of HIV-1 reverse transcription (pol viral DNA by qPCR)", "setting": "[11]", "value": "efficient inhibition"}]}, {"smiles": "CCOC(=O)c1n(Cc2ccc(N(C)C)cc2)c2ccc([N+](=O)[O-])cc2[n+]1[O-]", "note": "[compound 553]", "values": [{"measurement": "interference with the assembly of HIV-1 CA in vitro", "setting": "HIV-1 CA [10]", "value": "interference with the assembly"}, {"measurement": "EC50", "setting": "[5]", "value": "< 50", "unit": "µM"}, {"measurement": "unspecific cytotoxicity in murine macrophages", "setting": "[12]", "value": 100, "unit": "%"}]}, {"smiles": "C=CCn1c(-c2ccc3ccccc3c2)cs\\c1=N/N=C/C=C/c1ccco1", "note": "[compound 305]", "values": [{"measurement": "AMES Test (mutagenicity)", "setting": "[1]", "value": "non mutagenic"}, {"measurement": "interference with the assembly of HIV-1 CA in vitro", "setting": "HIV-1 CA [10]", "value": "interference with the assembly"}, {"measurement": "EC50", "setting": "[5]", "value": 50, "unit": "µM"}, {"measurement": "LD50 in mice (oral acute toxicity)", "setting": "mice", "value": 413, "unit": "mg/kg"}]}]}
